Assay [1] addresses T1, guinea pig trachea (contractions caused by U46619) (Cavia porcellus, UniProt A0A286Y4I8).
T1 sequence (A0A286Y4I8 1-347): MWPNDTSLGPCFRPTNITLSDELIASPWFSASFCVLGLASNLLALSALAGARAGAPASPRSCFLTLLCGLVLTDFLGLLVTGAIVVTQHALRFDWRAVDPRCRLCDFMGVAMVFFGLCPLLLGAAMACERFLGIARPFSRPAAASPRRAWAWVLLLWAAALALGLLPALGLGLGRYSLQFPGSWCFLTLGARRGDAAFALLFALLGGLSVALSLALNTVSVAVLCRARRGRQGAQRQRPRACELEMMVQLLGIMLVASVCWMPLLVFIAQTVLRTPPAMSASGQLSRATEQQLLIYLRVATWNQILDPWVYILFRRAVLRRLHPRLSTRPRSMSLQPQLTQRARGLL
The assay can be described thus: pA2 on guinea pig trachea (U46619-induced contraction). It is filed as cell-based. Particulars: guinea pig tracheal rings; U46619 10^-9 M to 10^-5 M; antagonist contact 20 minutes.

Assay [2] deals with Dog platelets (aggregation induced by U46619+adrenaline). Nature of the assay: Platelet aggregation in dogs (U46619 + adrenaline, PRP). The format is cell-based. As to conditions: Canis lupus familiaris, adrenaline 10 μM then U46619 1.2 μM, 3 min preincubation, 37° C., read-out: IC50 (50% inhibition of the aggregation responses to U46619+adrenaline). The method, then: Platelet Aggregation in Dogs
After anesthesia of the animal with pentobarbital sodium (30 mg/kg i.v.), arterial blood is withdrawn onto sodium citrate (0.109M) (1 vol. of citrate per 9 vol. of blood). Platelet-rich plasma (PRP) is obtained after centrifugation (20° C.) at 200 g for 10 minutes. The number of platelets in the PRP is 300,000 PL/mm^3 on average. The PRP is stored at the temperature of the room until the time of the test, and is used within 4 hours following withdrawal from the animal.
Dog platelets respond weakly to U46619 alone. […] The PRP is incubated at 37° C. in the presence of the test antagonist for 3 minutes. Aggregation is then obtained by the addition of adrenaline (10 μM) followed by that of U46619 (1.2 μM) 30 seconds later. The effect of the antagonists is measured, and the IC50 is determined as the concentration of the antagonist needed to produce a 50% inhibition of the aggregation responses to U46619+adrenaline.

Assay [3] deals with tracheal pressure in guinea pigs (bronchoconstriction caused by U46619). The assay can be described thus: IC50 on tracheal pressure in guinea pigs (U46619-induced bronchoconstriction). The format is in vivo, guinea pig. As to conditions: Cavia porcellus, iv, 5 min; anesthetized guinea pigs; U46619 2 μg/kg i.v.; antagonist injected 5 minutes before U46619; read-out: IC50 (dose of antagonist that inhibits by 50% the increase in tracheal pressure caused by U46619). An excerpt: ICso on Tracheal Pressure in Guinea Pigs
Male albino guinea pigs (350-400 g) subjected to an 18-hour water diet are anesthetized with ethyl carbamate (1.25 g/kg i.p.). A catheter is introduced into the carotid artery in order to measure the arterial blood pressure by means of a pressure cell. A second catheter is introduced into the jugular vein and is used to inject the pharmacological substances. The trachea is cannulated and the guinea pig is placed in assisted respiration by means of a respirator. The animal's temperature is maintained at 37° C. using a thermostatic blanket. A needle pushed in the tracheal cannula is connected to a pressure cell and enables the tracheal pressure to be recorded.
The guinea pigs are pretreated with d-tubocurarine (1 mg/kg i.v.) and with indomethacin (10 mg/kg i.v.). When injected at a dose of 2 μg/kg i.v., U46619 causes a bronchoconstriction which leads to an increase in tracheal pressure and induces an increase in arterial blood pressure. The responses to U46619 are reversible and reproducible if the injections are carried out every 10 minutes.
The thromboxane receptor antagonists are injected 5 minutes before the injections of U46619. The dose of antagonist that inhibits by 50% the increase in tracheal pressure caused by U46619 is determined (IC50).

Assay [4] relates to platelets (aggregation induced by U46619). The assay can be described thus: Platelet aggregation in man (U46619-induced, PRP). The format is cell-based. Particulars: human PRP, procedure of Example 22 (U46619 1.2 μM), read-out: IC50 (50% inhibition of platelet aggregation induced by U46619). On the procedure: Platelet aggregation is carried out at 37° C. in siliconed glass tubes using an aggregometer. The PRP and the PL are stirred at 1000 rpm (revolutions per minute). In order to study the activity of thromboxane antagonists, the PRP is incubated for 1 min at 37° C., and the antagonist is then added for a period of 3 min before addition of the agonist U46619 (1.2 μM). The final volume in the measuring cell is then 250 μl. The intensity of platelet aggregation is established by taking the maximum amplitude of aggregation plots and is expressed as a percentage light transmission (% T). The activity of the antagonists is expressed as IC50, that is to say the concentration of the substance which induces a 50% inhibition of the aggregation response induced by U46619.
Platelet Aggregation in Man
Venous blood is obtained from human volunteers who have not taken aspirin for at least 14 days prior to the experiment. The blood is withdrawn onto sodium citrate (0.109M) (1 vol. of citrate to 9 vol. of blood). Platelet-rich plasma (PRP) is obtained after centrifugation (20° C.) at 200 g for 10 minutes. The number of platelets is 250,000 PL/mm^3 on average. The PRP is stored at the temperature of the room until the time of the test, and is used within 2 hours following withdrawal from the subject. The antagonists are tested according to the procedure described in Example 22.

Assay [5] has as its system platelets (aggregation induced by U46619, a TXA2 receptor agonist). The assay can be described thus: Platelet aggregation in rabbits (U46619-induced, PRP). It is filed as cell-based. Particulars: Oryctolagus cuniculus, 0.05 h, rabbit PRP, U46619 1.2 μM, antagonist 3 min before agonist, 37° C., read-out: IC50 (50% inhibition of the aggregation response induced by U46619). On the procedure:
Platelet Aggregation in Rabbits
Rabbits (2-3 kg) are anesthetized with pentobarbital sodium (30 mg/kg i.v.). After cannulation of the left carotid artery, blood is withdrawn onto sodium citrate (0.109M) (1 vol. of citrate per 9 vol. of blood). Platelet-rich plasma (PRP) is obtained by centrifugation (20° C.) at 250 g for 20 minutes, and platelet-poor plasma (PPP) by centrifugation at 1000 g (10 min). The number of platelets (PL) in the PRP is adjusted to 300-350,000 PL/mm^3 by dilution with autologous PPP. The PRP is stored at the temperature of the room until the time of the test, and is used within 4 hours following withdrawal from the animal.
Platelet aggregation is carried out at 37° C. in siliconed glass tubes using an aggregometer. The PRP and the PL are stirred at 1000 rpm (revolutions per minute). In order to study the activity of thromboxane antagonists, the PRP is incubated for 1 min at 37° C., and the antagonist is then added for a period of 3 min before addition of the agonist U46619 (1.2 μM). The final volume in the measuring cell is then 250 μl. The intensity of platelet aggregation is established by taking the maximum amplitude of aggregation plots and is expressed as a percentage light transmission (% T). […]

The values that follow come from patent US5436343A, “Alkenecarboxylic acid compounds” (Adir et Compagnie, priority 1992, dated 1995).

Counter-ions that a name gives are not always drawn.

In general, Kb refers to the equilibrium dissociation constant of an antagonist, usually derived from a functional assay. For orientation: IC50 means the point on the concentration scale where inhibition reaches its midpoint.

As to `O=C(O)CCC/C=C\CC1(CCNS(=O)(=O)c2ccc(Cl)cc2)CCCCC1` [Example 1, (5Z)-10-[(4-Chlorophenyl)sulfonamido]-8,8-pentamethylene-5-decenoic acid sodium salt], the Kb in assay [1] was 0.398 nM. In addition, the IC50 in assay [2] amounted to 140 nM. For the same compound, the ED50 in assay [3] is 0.027 mg/kg.

For the compound `O=C(O)CC/C=C\CC1(CCNS(=O)(=O)c2ccc(Cl)cc2)CCCCC1` [Example 2, (4Z ) -9-[(4-Chlorophenyl)sulfonamido]-7 , 7-pentamethylene-4-nonenoic acid sodium salt], the Kb in assay [1] was 3.98 nM. The IC50 was 200 nM in assay [4], 200 nM in assay [5] and 120 nM in assay [2]. For the same compound, in assay [3], the ED50 was determined as 0.12 mg/kg.

Take `O=C(O)CC/C=C\CC1(CCNS(=O)(=O)c2ccc(Cl)cc2)CCCC1` [Example 3, (4Z)-9-[(4-Chlorophenyl)sulfonamido]-7,7-tetramethylene-4-nonenoic acid sodium salt]: the Kb in assay [1] is 0.501 nM. In addition, the values for the IC50 in assay [4] and in assay [2] were 80 nM and 60 nM, respectively. Also, in assay [3], the ED50 amounted to 0.019 mg/kg.

As to `Cc1ccc(S(=O)(=O)NCCC2(C/C=C\CCCC(=O)O)CCCCC2)cc1` [Example 4, (5Z)-10-[(4-Methylphenyl)sulfonamido]-8,8-pentamethylene-5-decenoic acid sodium salt], the Kb in assay [1] is 3.16 nM. For the same compound, in assay [2], the IC50 was 200 nM. For the same compound, the ED50 in assay [3] is 0.105 mg/kg.

In turn, `O=C(O)CCC/C=C\CC1(CCNS(=O)(=O)c2ccc(Br)cc2)CCCCC1` [Example 5, (5Z)-10-[(4-Bromophenyl)sulfonamido]-8,8-pentamethylene-5-decenoic acid sodium salt] gave a Kb in assay [1] of 6.31 nM. Besides, the IC50 in assay [2] is 140 nM. Further, the ED50 in assay [3] worked out at 0.066 mg/kg.

Regarding `O=C(O)CC/C=C\CC1(CNS(=O)(=O)c2ccc(Cl)cc2)CCCC1` [Example 6, (4Z) -8-[(4-Chlorophenyl)sulfonamido]-7,7-tetramethylene-4-octenoic acid sodium salt], the Kb in assay [1] was 0.724 nM. Moreover, the IC50 in assay [4] stood at 80 nM; in assay [5], 200 nM. In addition, the ED50 in assay [3] is 0.021 mg/kg.

In turn, `O=C(O)CC/C=C\CC1(CNS(=O)(=O)c2ccc(Cl)cc2)CCCCC1` [Example 7, (4Z)-8-[(4-Chlorophenyl)sulfonamido]-7,7-pentamethylene-4-octenoic acid sodium salt] showed a Kb in assay [1] of 0.398 nM. Also, the IC50 in assay [4] is 300 nM. In assay [3], the ED50 came out at 0.02 mg/kg.

Consider `O=C(O)CCC/C=C\CC1(CNS(=O)(=O)c2ccc(Cl)cc2)CCCC1` [Example 8, (5Z )-9-[(4-Chlorophenyl)sulfonamido]-8,8-tetramethylene-5-nonenoic acid sodium salt], for which, in assay [1], the Kb is 0.234 nM. For the same compound, the half-inhibitory concentration (IC50) in assay [4] turned out to be 300 nM. In addition, the ED50 in assay [3] came out at 0.007 mg/kg.

Turning to `O=C(O)CC/C=C\CCC1(CNS(=O)(=O)c2ccc(Cl)cc2)CCCC1` [Example 9, (4Z)-9-[(4-Chlorophenyl)sulfonamido]-8,8-tetramethylene-4-nonenoic acid sodium salt], in assay [1], the Kb was 0.832 nM. In addition, the IC50 in assay [4] turned out to be 200 nM. The ED50 in assay [3] came out at 0.011 mg/kg.

In assay [1], `O=C(O)CC/C=C\CCC1(NS(=O)(=O)c2ccc(Cl)cc2)CCCC1` [Example 10, (4Z)-8-[(4-Chlorophenyl)sulfonamido]-8,8-tetramethylene-4-octenoic acid sodium salt] showed a Kb of 22.4 nM.

`O=C(O)CCC/C=C\CCC1(NS(=O)(=O)c2ccc(Cl)cc2)CCCC1` [Example 11, (5Z)-9-[(4-Chlorophenyl)sulfonamido]-9,9-tetramethylene-5-nonenoic acid sodium salt] showed a Kb in assay [1] of 20 nM.

In assay [1], `O=C(O)CCC/C=C\CC1(CCNS(=O)(=O)c2ccc(Cl)cc2)CCCC1` [Example 12, (5Z)-10-[(4-Chlorophenyl)sulfonamido]-8,8-tetramethylene-5-decenoic acid sodium salt] showed a Kb of 1.05 nM. Further, the IC50 in assay [4] amounted to 500 nM; in assay [2], 150 nM. Besides, the ED50 in assay [3] came out at 0.009 mg/kg.

Consider `O=C(O)CC/C=C\CCC1(CCNS(=O)(=O)c2ccc(Cl)cc2)CCCC1` [Example 14, (4Z )-10-[(4-Chlorophenyl)sulfonamido]-8,8-tetramethylene-4-decenoic acid sodium salt], for which the IC50 in assay [4] was determined as 800 nM.

Take `O=C(O)CC/C=C\CC1(CCNS(=O)(=O)c2ccc(Cl)cc2)CCc2ccccc21` (stereo not drawn) [sodium salt]: in assay [1], the Kb was 3.98 nM.
